This is an account of results in US12168668B2, “Compounds for the treatment of cancer and inflammatory disease” (SHY Therapeutics LLC, priority 2015, dated 2024).

Molecules are shown by their SMILES.

One assay relates to IL-6. In words: Mouse IL6 quantification assay (LPS-stimulated RAW 264.7, ELISA). The class given is cell-based. The note with it: RAW264.7, RAW 264.7 macrophage cell line, LPS stimulation 16 h. The procedure: (§1) Protocol for Mouse TNF Alpha and IL6 Quantification Assay
(§2) Cell lines: Abelson murine leukemia virus transformed macrophage cell line RAW 264.7 was purchased from ATCC and grown in complete DMEM-High Glucose medium supplemented with penicillin (100 U/mL), streptomycin (100 μg/mL), and 10% heat-inactivated FBS at 37° C. in a humidified incubator with 5% CO2.
(§3) Method: Cells were plated at 40000 cells/well density in a 96-wells plate. After a 3-hour incubation, macrophages were starved with DMEM plus 0.5% FBS o/n. The next day the small molecules to be tested were added to the cells in the final concentration of 30 μM (with 0.3% DMSO) 3 hours prior to LPS stimulation (100 ng/ml). After LPS stimulation cells were incubated at 37° C. for 16 h. At the end of the incubation period, culture media were collected and production of LPS-induced TNFα and IL6 cytokine was measured using ELISA detection kits.
(§4) Sandwich ELISA: The ELISA Immunoassays Quantikine Mouse TNF-alpha (catalog number MTA00B) and IL6 (catalog number M6000B) were purchased from R&D Systems Inc., Minneapolis, MN These 4.5 hours solid phase ELISAs were used to measure mouse TNFα or IL6 levels in macrophages culture supernatants. Assays were executed according to the manufacturer specifications.
For orientation: An ELISA detects its analyte on a solid surface through an enzyme-linked reagent.

Another assay has as its system TNFα. The assay is described as follows: Mouse TNF alpha quantification assay (LPS-stimulated RAW 264.7, ELISA). The format is cell-based. The note with it: RAW264.7, RAW 264.7 macrophage cell line, LPS stimulation 16 h. The protocol:
as §1, §2, §3, §4

As usually defined, the inhibition is the change of the read-out against control, counted positive when it falls. Higher therefore signals strong suppression. On to `Oc1ccc(C2(c3ccccc3)CCCC2)cc1`, for which the inhibition at 30 µM in the assay on IL-6 and in the assay on TNFα was 76 to 100% throughout. The molecule `Oc1nc(-c2ccccn2)nc2c(-c3ccccc3)csc12` showed an inhibition at 30 µM with TNFα of 76 to 100%. `Oc1nc(-c2ccccn2)nc2c(-c3ccccc3Cl)csc12` displayed an inhibition at 30 µM with TNFα of 51 to 75%.
